Laboratory results from patent publication US11708344B2, “Flavone derivatives for the treatment and prophylaxis of hepatitis B virus disease” (Hoffmann-La Roche Inc., priority 2018, dated 2023).

Experiments:
[1] = test system: HBsAg in HBV-infected PHH; assay: Cryopreserved primary human hepatocytes (PHH) HBV infection assay, extracellular HBsAg (CLIA); assay type: cell-based; conditions: Hepatitis B virus, Hepatocyte, 216 h, read-out: HBsAg IC50, Cryopreserved PHH infected with HBV, 9 days post-compound treatment, extracellular HBsAg
Summary of the method: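 Cryopreserved PHH were infected with 5.8×10^6 HBV genome equivalents in medium with 4% PEG8000 and 1% DMSO. After 9 days of treatment, extracellular HBsAg was measured by CLIA, and IC50 was derived from a 4-parameter logistic fit.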

[2] = Human microsome stability assay; assay type: in vitro ADME; conditions: human liver microsomes, 1 μM test compound, 0.5 mg/mL microsomal protein, 37° C., pH 7.4, 0-30 minutes
Summary of the method: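 Parent compound remaining was measured by LC-MS/MS at 0, 3, 6, 9, 15 and 30 min, following ACN quench. Reactions held 1 μM compound and 0.5 mg/mL human liver microsomal protein in pH 7.4 phosphate buffer at 37 °C, started by NADPH regeneration (1 mM NADP, 1 mM MgCl2); controls lacked NADPH.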

[3] = test system: HBeAg (surrogate marker for cccDNA) in HepDES19 cells; assay: Engineered HepDES19 primary screen assay (HBeAg ELISA); assay type: cell-based, HBV; conditions: Hepatitis B virus, HepDES19, 120 h, read-out: IC50 (HBeAg level, HepDES19 primary screen assay), HepDES19 cells, 5 days compound incubation, HBeAg ELISA
Summary of the method: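 IC50 values come from 4-parameter logistic fits of HBeAg ELISA signal, the cccDNA surrogate, with CCK-8 run in parallel for viability. Compounds at half-log dilutions with 1% DMSO were applied for 5 days at 37 °C to HepDES19 cells previously cultured 8 days without Tet.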

**Q.** For `COc1cc(-c2cc(=O)c3cccc(Cl)c3o2)c(OCCO[C@H]2C[C@@H](C(=O)O)C2)cc1Br` [Example C073, Cis-3-[2-[5-bromo-2-(8-chloro-4-oxo-chromen-2-yl)-4-methoxy-phenoxy]ethoxy]cyclobutanecarboxylic acid], which IC50 [1] is on record?
**A.** 7.56 µM

**Q.** What about the “Clearance of Human microsome” value [2] of the same compound?
**A.** 7.85 mL/min/kg

**Q.** What about the IC50 [3] of the same compound?
**A.** 0.92 µM

**Q.** For `CCCOc1cc(OCCO[C@H]2C[C@@H](C(=O)O)C2)c(-c2cc(=O)c3cccc(Cl)c3o2)cc1OC` [Example C077, Cis-3-[2-[2-(8-chloro-4-oxo-chromen-2-yl)-4-methoxy-5-propoxy-phenoxy]ethoxy]cyclobutanecarboxylic acid], which IC50 [1] is on record?
**A.** 9.37 µM

**Q.** And the “Clearance of Human microsome” value [2]?
**A.** 6.15 mL/min/kg

**Q.** And the IC50 [3]?
**A.** 3.21 µM

**Q.** For `CCOc1cc(OCCO[C@H]2C[C@@H](C(=O)O)C2)c(-c2cc(=O)c3cccc(Cl)c3o2)cc1OC` [Example C078, Cis-3-[2-[2-(8-chloro-4-oxo-chromen-2-yl)-5-ethoxy-4-methoxy-phenoxy]ethoxy]cyclobutanecarboxylic acid], which IC50 [1] is on record?
**A.** 6.32 µM

**Q.** And the “Clearance of Human microsome” value [2]?
**A.** 6.15 mL/min/kg

**Q.** What about the IC50 [3] of the same compound?
**A.** 15 µM

**Q.** With `COc1cc(-c2cc(=O)c3cccc(Cl)c3o2)c(OCCO[C@H]2C[C@@H](C(=O)O)C2)cc1OCC(F)(F)F` [Example C080, Cis-3-[2-[2-(8-chloro-4-oxo-chromen-2-yl)-4-methoxy-5-(2,2,2-trifluoroethoxy)phenoxy]ethoxy]cyclobutanecarboxylic acid] as the compound, how does the IC50 [1] read?
**A.** 3.51 µM

**Q.** And the “Clearance of Human microsome” value [2]?
**A.** 6.15 mL/min/kg

**Q.** What about the IC50 [3] of the same compound?
**A.** 4 µM

**Q.** What does the source list for `COc1cc(-c2cc(=O)c3cccc(Cl)c3o2)c(OCCO[C@H]2C[C@@H](C(=O)O)C2)cc1OC(F)F` [Example C081, Cis-3-[2-[2-(8-chloro-4-oxo-chromen-2-yl)-5-(difluoromethoxy)-4-methoxy-phenoxy]ethoxy]cyclobutanecarboxylic acid]?
**A.** IC50 [1]: 8.77 µM; Clearance of Human microsome [2]: 6.15 mL/min/kg; IC50 [3]: 0.779 µM

**Q.** For `COc1cc(OCCO[C@H]2C[C@@H](C(=O)O)C2)c(-c2cc(=O)c3cccc(Cl)c3o2)cc1OCC1CC1` [Example C082, cis-3-[2-[2-(8-chloro-4-oxo-chromen-2-yl)-4-(cyclopropylmethoxy)-5-methoxy-phenoxy]ethoxy]cyclobutanecarboxylic acid], which IC50 [1] is on record?
**A.** 9.52 µM

**Q.** What about the “Clearance of Human microsome” value [2] of the same compound?
**A.** 6.15 mL/min/kg

**Q.** And the IC50 [3]?
**A.** 3.97 µM

**Q.** What does the source list for `CCOc1cc(-c2cc(=O)c3cccc(Cl)c3o2)c(OCCO[C@H]2C[C@@H](C(=O)O)C2)cc1OC` [Example C084, cis-3-[2-[2-(8-chloro-4-oxo-chromen-2-yl)-4-ethoxy-5-methoxy-phenoxy]ethoxy]cyclobutanecarboxylic acid]?
**A.** IC50 [1]: 5.21 µM; Clearance of Human microsome [2]: 6.15 mL/min/kg; IC50 [3]: 15.1 µM

**Q.** With `COc1cc(OCCO[C@H]2C[C@@H](C(=O)O)C2)c(-c2cc(=O)c3cccc(Cl)c3o2)cc1OCC(F)(F)F` [Example C085, cis-3-[2-[2-(8-chloro-4-oxo-chromen-2-yl)-5-methoxy-4-(2,2,2-trifluoroethoxy)phenoxy]ethoxy]cyclobutanecarboxylic acid] as the compound, how does the IC50 [1] read?
**A.** 9.02 µM

**Q.** And the “Clearance of Human microsome” value [2]?
**A.** 6.15 mL/min/kg

**Q.** What about the IC50 [3] of the same compound?
**A.** 0.271 µM

**Q.** Which IC50 [1] does the source give for `COc1cc(OCCO[C@H]2C[C@@H](C(=O)O)C2)c(-c2cc(=O)c3cccc(Cl)c3o2)cc1OC(F)F` [Example C086, cis-3-[2-[2-(8-chloro-4-oxo-chromen-2-yl)-4-(difluoromethoxy)-5-methoxy-phenoxy]ethoxy]cyclobutanecarboxylic acid] here?
**A.** 5.46 µM

**Q.** What about the “Clearance of Human microsome” value [2] of the same compound?
**A.** 6.15 mL/min/kg

**Q.** What about the IC50 [3] of the same compound?
**A.** 5.03 µM

**Q.** Which results are given for `COc1cc(OCCO[C@H]2C[C@@H](C(=O)O)C2)c(-c2cc(=O)c3c(C(F)(F)F)ccc(Cl)c3o2)cc1OC` [Example C096, Cis-3-[2-[2-[8-chloro-4-oxo-5-(trifluoromethyl)chromen-2-yl]-4,5-dimethoxy-phenoxy]ethoxy]cyclobutanecarboxylic acid]?
**A.** IC50 [1]: 7.78 µM; Clearance of Human microsome [2]: 6.15 mL/min/kg; IC50 [3]: 3.48 µM

**Q.** Which IC50 [1] does the source give for `O=C(O)C1CC(OCCCOc2cc(C(F)(F)F)ccc2-c2cc(=O)c3cccc(Cl)c3o2)C1` (stereo not drawn) [Example C103, 3-[3-[2-(8-chloro-4-oxo-chromen-2-yl)-5-(trifluoromethyl)phenoxy]propoxy]cyclobutanecarboxylic acid] here?
**A.** 7.56 µM

**Q.** What about the “Clearance of Human microsome” value [2] of the same compound?
**A.** 6.15 mL/min/kg

**Q.** What about the IC50 [3] of the same compound?
**A.** 2.28 µM

**Q.** Which IC50 [1] does the source give for `O=C(O)COCC(O)COc1cc(Br)ccc1-c1cc(=O)c2cccc(Cl)c2o1` (stereo not drawn) [Example C113, 2-[3-[5-bromo-2-(8-chloro-4-oxo-chromen-2-yl)phenoxy]-2-hydroxy-propoxy]acetic acid] here?
**A.** 8.89 µM

**Q.** And the “Clearance of Human microsome” value [2]?
**A.** 6.15 mL/min/kg

**Q.** What about the IC50 [3] of the same compound?
**A.** 1.28 µM

**Q.** What does the source list for `COc1cc(OCCO[C@H]2C[C@@H](C(=O)NS(=O)(=O)C3CC3)C2)c(-c2cc(=O)c3cccc(Cl)c3o2)cc1OC` [Example C119, Cis-3-[2-[2-(8-chloro-4-oxo-chromen-2-yl)-4,5-dimethoxy-phenoxy]ethoxy]-N-cyclopropylsulfonyl-cyclobutanecarboxamide]?
**A.** IC50 [1]: 7.21 µM; Clearance of Human microsome [2]: 6.39 mL/min/kg; IC50 [3]: 3.48 µM

**Q.** For `CS(=O)(=O)NC(=O)COCCOc1cc(C(F)(F)F)ccc1-c1cc(=O)c2cccc(Cl)c2o1` [Example C120, 2-[2-[2-(8-chloro-4-oxo-chromen-2-yl)-5-(trifluoromethyl)phenoxy]ethoxy]-N-methylsulfonyl-acetamide], which IC50 [1] is on record?
**A.** 4.12 µM

**Q.** What about the “Clearance of Human microsome” value [2] of the same compound?
**A.** 6.15 mL/min/kg

**Q.** And the IC50 [3]?
**A.** 1.05 µM

**Q.** Which IC50 [1] does the source give for `CS(=O)(=O)NC(=O)[C@H]1C[C@@H](OCCOc2cc(Br)ccc2-c2cc(=O)c3cccc(Cl)c3o2)C1` [Example C122, Cis-3-[2-[5-bromo-2-(8-chloro-4-oxo-chromen-2-yl)phenoxy]ethoxy]-N-methylsulfonyl-cyclobutanecarboxamide] here?
**A.** 4.81 µM

**Q.** What about the “Clearance of Human microsome” value [2] of the same compound?
**A.** 7.32 mL/min/kg

**Q.** What about the IC50 [3] of the same compound?
**A.** 1.05 µM

**Q.** For `COc1cc(OCCO[C@H]2C[C@@H](C(=O)NS(C)(=O)=O)C2)c(-c2cc(=O)c3cccc(Cl)c3o2)cc1OC` [Example C125, 3-[2-[2-(8-chloro-4-oxo-chromen-2-yl)-4,5-dimethoxy-phenoxy]ethoxy]-N-methylsulfonyl-cyclobutanecarboxamide], which IC50 [1] is on record?
**A.** 7.17 µM

**Q.** And the “Clearance of Human microsome” value [2]?
**A.** 6.15 mL/min/kg

**Q.** What about the IC50 [3] of the same compound?
**A.** 4.91 µM
